Reference: ChEMBL document CHEMBL2046443, “Desmethyl Macrolides: Synthesis and Evaluation of 4,10-Didesmethyl Telithromycin” (2012)
Converted amounts (≈) assume the structure as drawn. Blank lines part the entries; values can stand above or below the compound they belong to.

Tests used:
Assay type in all cases: functional
Escherichia coli [1] = assay: Antibacterial activity against wild type Escherichia coli DK/pKK3535
Escherichia coli [2] = assay: Antibacterial activity against Escherichia coli SQ171 harboring 23S rRNA A2058G mutant
Escherichia coli [3] = assay: Antibacterial activity against Escherichia coli DK harboring 23S rRNA A2058G mutant
Staphylococcus aureus [4] = assay: Antibacterial activity against Staphylococcus aureus UCN14 harboring 23S rRNA A2058T mutant
Staphylococcus aureus [5] = assay: Antibacterial activity against Staphylococcus aureus ATCC 33591 harboring ermA gene

MIC (Escherichia coli [1]): 32 µg/mL (≈ 41.6 µM)
SMILES: CC[C@H]1OC(=O)[C@H](C)C(=O)C[C@@H](O[C@@H]2O[C@H](C)C[C@H](N(C)C)[C@H]2O)[C@@](C)(OC)CCC(=O)C[C@@H]2N(CCCCn3cnc(-c4cccnc4)c3)C(=O)O[C@@]21C

SMILES: CC[C@H]1OC(=O)[C@H](C)C(=O)C[C@@H](O[C@@H]2O[C@H](C)C[C@H](N(C)C)[C@H]2O)[C@](C)(OC)C[C@@H](C)C(=O)C[C@H]2N(CCCCn3cnc(-c4cccnc4)c3)C(=O)O[C@]12C
MIC (Escherichia coli [2]): > 512 µg/mL
MIC (Escherichia coli [1]): 8 µg/mL (≈ 10.2 µM)
MIC (Escherichia coli [3]): 16 µg/mL (≈ 20.4 µM)
MIC (Staphylococcus aureus [4]): > 256 µg/mL
MIC (Staphylococcus aureus [5]): > 128 µg/mL

SMILES: CC[C@H]1OC(=O)[C@H](C)C(=O)[C@H](C)[C@@H](O[C@@H]2O[C@H](C)C[C@H](N(C)C)[C@H]2O)[C@](C)(OC)C[C@@H](C)C(=O)[C@H](C)[C@H]2N(CCCCn3cnc(-c4cccnc4)c3)C(=O)O[C@]12C [TELITHROMYCIN]
MIC (Escherichia coli [2]): > 512 µg/mL
MIC (Escherichia coli [1]): 0.5 µg/mL (≈ 0.616 µM)
MIC (Escherichia coli [3]): 1 µg/mL (≈ 1.23 µM)
MIC (Staphylococcus aureus [4]): > 128 µg/mL
MIC (Staphylococcus aureus [5]): > 128 µg/mL
